In US10555987B2, “GHRH agonists for the treatment of ischemic disorders” (UNIVERSITY OF MIAMI, priority 2012, dated 2020):
Blank lines part the entries; values can stand above or below the molecule they belong to. Non-standard residues stand in square brackets, D forms with d. Residues, ends and D or L forms follow the SMILES beside them. *: point of attachment. Desaminotyrosyl = O=C(CCc1ccc(O)cc1)*; Agmatine = N=C(N)NCCCCN*; Nle = CCCC[C@H](N)C(=O)O; Orn = NCCC[C@H](N)C(=O)O; dAbu = CC[C@@H](N)C(=O)O; Abu = CC[C@H](N)C(=O)O; Aoc = NCCCCCCCC(=O)O; GABA = NCCCC(=O)O

How the values were obtained:
[1] = target: T1, GHRH receptor (Homo sapiens, UniProt Q02643); test: GHRH receptor binding, competition with 125I-labeled [His1,Nle27]hGHRH(1-32)NH2, human pituitary membrane homogenates (Table 6); parameters: Normal human pituitaries were purchased from the National Hormone and Peptide Program; tissue National Hormone and Peptide Program (A.F. Parlow, Harbor-UCLA Medical Center, Torrance, Calif.); host or cells: normal human pituitary, membrane fraction; details: for Relative affinity (Binding potency) vs GHRH: GHRH(1-29) = 1, Table 6
T1 sequence (Q02643 23-423): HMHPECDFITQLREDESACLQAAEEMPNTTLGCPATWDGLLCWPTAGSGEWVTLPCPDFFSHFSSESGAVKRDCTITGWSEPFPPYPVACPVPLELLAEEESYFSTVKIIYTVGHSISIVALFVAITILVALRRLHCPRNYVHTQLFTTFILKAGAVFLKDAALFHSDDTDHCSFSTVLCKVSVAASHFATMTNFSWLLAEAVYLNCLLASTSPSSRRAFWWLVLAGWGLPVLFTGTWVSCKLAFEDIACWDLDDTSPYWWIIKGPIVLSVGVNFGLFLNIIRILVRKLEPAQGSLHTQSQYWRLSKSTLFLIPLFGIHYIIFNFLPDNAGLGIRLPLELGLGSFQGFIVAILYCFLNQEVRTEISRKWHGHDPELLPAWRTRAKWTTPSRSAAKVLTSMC
Description: (§1) Normal human pituitaries were purchased from the National Hormone and Peptide Program (A.F. Parlow, Los Angeles, County Harbor-UCLA Medical Center, Torrance, Calif.).

[2] = target: T1, GHRH receptor; test: GHRH receptor binding, competition with 125I-labeled JV-1-42, human pituitary membrane homogenates (Table 7); parameters: Normal human pituitaries were purchased from the National Hormone and Peptide Program; tissue National Hormone and Peptide Program (A.F. Parlow, Harbor-UCLA Medical Center, Torrance, Calif.); host or cells: normal human pituitary, membrane fraction; details: JI-38 = 1, Table 7
Description: as §1

[3] = system: GH release; test: In vivo endocrine activity, GH release after subcutaneous administration (Table 9); details: rat, subcutaneous (s.c.) injection
Experimental: Subcutaneous Administration. Adult male rats were used and anesthetized with pentobarbital (6 mg/100 g, b.w.), by i.p. injection. […] Blood samples were taken from the jugular vein 5, 15 and/or 30 minutes after the injection. The blood samples were centrifuged, plasma was removed and the GH level was measured byELISA. The results are summarized in terms of potency in Table 9.

[4] = system: GH release; test: In vivo endocrine activity, GH release after intravenous administration (Table 8); details: rat, i.v. injection
[5] = target: T1, GHRH receptor; test: Receptor binding in vitro, 125I-labeled [His1,Nle27]-hGHRH(1-32)NH2, membrane receptors of human anterior pituitary cells (Table 14)
[6] = system: GH release; test: GH releasing potency in vivo, intravenous administration (Example 14, Table 13); parameters: species or system rat; details: i.v.
Experimental: Male Sprague-Dawley rats, weighing 200-250 g, were purchased from Charles River Laboratory (Wilmington, Mass.) and used for experiments. All animal procedures were approved by the Veterans Affairs Animal Care and Use Committee and were conducted in accordance with additional institutional guidelines as well. Briefly, groups of 5-6 animals were used in each experiment. The rats were anesthetized with 50 mg/kg of sodium pentobarbital (Nembutal, Lundbeck Inc., Deerfield, Ill.). Twenty min after inducing anesthesia, GHRH(1-29)NH2, JI-38, or new analogs were injected into the animals intravenously (i.v.) or subcutaneously (s.c.). The peptides were dissolved in 0.01 M acetic acid to get 1 μg/μl stock solution, and then diluted with 5% mannitol. Control rats received 5% mannitol only. Blood samples were collected from the jugular vein at selected times and were used for serum preparation. Concentrations of GH in rat sera were determined by ELISA. The relative potencies of tested peptides were calculated using GHRH(1-29)NH2 and JI-38 for comparison, whose potency was defined as 1. The equivalent dosage of GHRH(1-29)NH2 to reach the same level of serum growth hormone release after injection of the specific tested peptide was determined from a GHRH(1-29)NH2 standard curve using Origin 6.0 software. […] Serum GH was determined using the rat Growth Hormone ELISA kit (ALPCO Diagnostics, Mill Valley, Calif.) according to the manufacturer's instruction. Absorbance at 405 nm was measured by a Victor 3 Multi-label Counter (Perkin-Elmer, Waltham, Md.).

[7] = system: GH release; test: GH releasing potency in vivo, subcutaneous administration (Example 14, Table 12); parameters: species or system rat; details: s.c.
How it was run: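 Potency is expressed relative to GHRH(1-29)NH2 and JI-38 (each = 1), via equivalent GHRH(1-29)NH2 dose read from a standard curve. Peptides in 5% mannitol given i.v. or s.c. to anaesthetised male Sprague-Dawley rats (200-250 g); serum GH measured by ELISA at selected times.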

Structure (SMILES): CCCC[C@H](NC(=O)[C@@H](NC(=O)[C@H](CC(=O)O)NC(=O)[C@H](CCC(N)=O)NC(=O)[C@H](CC(C)C)NC(=O)[C@H](CC(C)C)NC(=O)[C@H](CCCN)NC(=O)[C@H](CCCNC(=N)N)NC(=O)[C@H](C)NC(=O)[C@H](CO)NC(=O)[C@H](CC(C)C)NC(=O)[C@H](CCC(N)=O)NC(=O)[C@H](CC)NC(=O)[C@H](CC(C)C)NC(=O)[C@@H](NC(=O)[C@H](CCCN)NC(=O)[C@H](CCCNC(=N)N)NC(=O)[C@H](Cc1ccc(O)cc1)NC(=O)[C@H](CO)NC(=O)[C@H](CC(N)=O)NC(=O)[C@@H](NC(=O)[C@H](Cc1ccccc1)NC(=O)[C@@H](NC(=O)[C@H](C)NC(=O)[C@H](CC(=O)O)NC(=O)[C@H](C)NC(=O)CCc1ccc(O)cc1)[C@@H](C)CC)[C@@H](C)O)C(C)C)[C@@H](C)CC)C(=O)N[C@@H](CC(=O)O)C(=O)NCCCCNC(=N)N [JI-34, reference compound] (Desaminotyrosyl-ADAIFTNSYR[Orn]VL[Abu]QLSAR[Orn]LLQDI[Nle]D-Agmatine; N-terminus and C-terminus assumed)
Relative affinity (Binding potency) vs GHRH [1]: 4.32

Structure (SMILES): CCCC[C@H](NC(=O)[C@@H](NC(=O)[C@H](CC(=O)O)NC(=O)[C@H](CCC(N)=O)NC(=O)[C@H](CC(C)C)NC(=O)[C@H](CC(C)C)NC(=O)[C@H](CCCN)NC(=O)[C@H](CCCNC(=N)N)NC(=O)[C@H](C)NC(=O)[C@H](CO)NC(=O)[C@H](CC(C)C)NC(=O)[C@H](CCC(N)=O)NC(=O)[C@H](CC)NC(=O)[C@H](CC(C)C)NC(=O)[C@@H](NC(=O)[C@H](CCCN)NC(=O)[C@H](CCCNC(=N)N)NC(=O)[C@H](Cc1ccc(O)cc1)NC(=O)[C@H](CO)NC(=O)[C@@H](NC(=O)[C@@H](NC(=O)[C@H](Cc1ccccc1)NC(=O)[C@@H](NC(=O)[C@H](C)NC(=O)[C@H](CC(=O)O)NC(=O)[C@H](C)NC(=O)CCc1ccc(O)cc1)[C@@H](C)CC)[C@@H](C)O)[C@@H](C)O)C(C)C)[C@@H](C)CC)C(=O)N[C@@H](CC(=O)O)C(=O)NCCCCNC(=N)N [JI-36, reference compound] (Desaminotyrosyl-ADAIFTTSYR[Orn]VL[Abu]QLSAR[Orn]LLQDI[Nle]D-Agmatine; N-terminus and C-terminus assumed)
Relative affinity (Binding potency) vs GHRH [1]: 3.25

Relative affinity (Binding potency) vs GHRH [1]: 74.0
Relative affinity (Binding potency) vs JI-38 ([1]; JI-38 = 1, Table 6): 24.4
Structure (SMILES): CCCC[C@H](NC(=O)[C@@H](NC(=O)[C@H](CC(=O)O)NC(=O)[C@H](CCC(N)=O)NC(=O)[C@H](CC(C)C)NC(=O)[C@H](CC(C)C)NC(=O)[C@H](CCCN)NC(=O)[C@H](CCCNC(=N)N)NC(=O)[C@H](C)NC(=O)[C@H](CO)NC(=O)[C@H](CC(C)C)NC(=O)[C@H](CCC(N)=O)NC(=O)[C@H](CC)NC(=O)[C@H](CC(C)C)NC(=O)[C@@H](NC(=O)[C@H](CCCN)NC(=O)[C@H](CCCNC(=N)N)NC(=O)[C@H](Cc1ccc(O)cc1)NC(=O)[C@H](CO)NC(=O)[C@H](CCC(N)=O)NC(=O)[C@@H](NC(=O)[C@H](Cc1ccccc1)NC(=O)[C@@H](NC(=O)[C@H](C)NC(=O)[C@H](CC(=O)O)NC(=O)[C@@H](C)NC(=O)CCc1ccc(O)cc1)[C@@H](C)CC)[C@@H](C)O)C(C)C)[C@@H](C)CC)C(=O)N[C@@H](CC(=O)O)C(=O)N[C@@H](CCCNC(=N)N)C(=O)NCCCCCCCC(N)=O [Peptide P-21304, [Dat^1, D-Ala^2, Gln^8, Orn^12, Abu^15, Orn^21, Nle^27, Asp^28, Amc^30]hGHRH(1-30)NH2] (Desaminotyrosyl-[dA]DAIFTQSYR[Orn]VL[Abu]QLSAR[Orn]LLQDI[Nle]DR[Aoc]-NH2)

Relative affinity (Binding potency) vs JI-38 [2]: 3.02
Relative affinity (Binding potency) compared to JI-38 ([5]; JI-38 = 1): 0.96
Relative affinity (Binding potency) compared to hGHRH(1-29) ([5]; hGHRH(1-29)NH2 = 1): 2.68
Structure (SMILES): CCCC[C@H](NC(=O)[C@@H](NC(=O)[C@H](CC(=O)O)NC(=O)[C@H](CCC(N)=O)NC(=O)[C@H](CC(C)C)NC(=O)[C@H](CC(C)C)NC(=O)[C@H](CCCN)NC(=O)[C@H](CCCNC(=N)N)NC(=O)[C@H](C)NC(=O)[C@H](CO)NC(=O)[C@H](CC(C)C)NC(=O)[C@H](CCC(N)=O)NC(=O)[C@H](CC)NC(=O)[C@H](CC(C)C)NC(=O)[C@@H](NC(=O)[C@H](CCCN)NC(=O)[C@H](CCCNC(=N)N)NC(=O)[C@H](Cc1ccc(O)cc1)NC(=O)[C@H](CO)NC(=O)[C@H](CC(N)=O)NC(=O)[C@@H](NC(=O)[C@H](Cc1ccccc1)NC(=O)[C@@H](NC(=O)[C@H](C)NC(=O)[C@H](CC(=O)O)NC(=O)[C@@H](CC)NC(=O)CCc1ccc(O)cc1)[C@@H](C)CC)[C@@H](C)O)C(C)C)[C@@H](C)CC)C(=O)N[C@@H](CO)C(=O)N[C@@H](CCCNC(=N)N)C(=O)NCCCC(N)=O [Peptide P-25504, [Dat^1, D-Abu^2, Orn^12, Abu^15, Orn^21, Nle^27, Gab^30]hGHRH(1-30)NH2] (Desaminotyrosyl-[dAbu]DAIFTNSYR[Orn]VL[Abu]QLSAR[Orn]LLQDI[Nle]SR[GABA]-NH2)
GH releasing potency relative to JI-38 (=1) ([3]; 15 min after): 0.78
GH releasing potency relative to JI-38 (=1) ([3]; 30 min after): 0.98
GH releasing potency in vivo relative to JI-38 (=1) ([4]; 5 min after): 1.66
GH releasing potency in vivo relative to JI-38 (=1) ([4]; 15 min after): 1.65
GH releasing potency in vivo relative to JI-38 (=1) ([4]; 30 min after): 1.37
Relative potency, 5 min ([6]; 5 min, JI-38 = 1): 1.55
Relative potency, 15 min ([6]; 15 min, JI-38 = 1): 1.50
Serum GH level at selected time after injection (ng/ml), 0 min ([6]; dose 1 μg/kg, 0 min, mean ± SEM): 25.7 ± 6.3 ng/mL
Serum GH level at selected time after injection (ng/ml), 5 min ([6]; dose 1 μg/kg, 5 min, mean ± SEM): 832 ± 214 ng/mL
Serum GH level at selected time after injection (ng/ml), 15 min ([6]; dose 1 μg/kg, 15 min, mean ± SEM): 297 ± 45.6 ng/mL
Serum GH level at selected time after injection (ng/ml), 0 min ([7]; male rats, dose 3 μg/kg, 0 min, mean ± SEM): 25.4 ± 4.1 ng/mL
Serum GH level at selected time after injection (ng/ml), 15 min ([7]; male rats, dose 3 μg/kg, 15 min, mean ± SEM): 200.0 ± 10.7 ng/mL
Serum GH level at selected time after injection (ng/ml), 30 min ([7]; male rats, dose 3 μg/kg, 30 min, mean ± SEM): 130.0 ± 19.1 ng/mL
Relative potency compared to GHRH(1-29), 15 min ([7]; 15 min): 52.6
Relative potency compared to JI-38, 15 min ([7]; 15 min): 0.83
Relative potency compared to GHRH(1-29), 30 min ([7]; 30 min): 113.8
Relative potency compared to JI-38, 30 min ([7]; 30 min): 1.02
